Literature values in patent US20230018600A1, “CONTROLLED RELEASE FORMULATIONS COMPRISING DROTAVERINE OR SALT THEREOF” (priority 2020, published 2023).

Tests used:
[1] = test system: human isolated detrusor muscle; settings: induced plateau of contraction
[2] = not given; remark: listed apart in the source

## CCOc1ccc(/C=C2\NCCc3cc(OCC)c(OCC)cc32)cc1OCC [Drotaverine, (Z)-1-(3,4-diethoxybenzylidene)-6,7-diethoxy-1,2,3,4-tetrahydroisoquinoline]
[1]
  relaxation of human detrusor muscle contraction: significant concentration-dependent relaxation
IR Drotaverine Tablets 80 mg
  renal clearance as share of total plasma clearance: 0.31+/−0.13%
After oral administration of 80 mg strength IR tablets
  onset of action: ≤ 12 min
oral, 80 mg IR tablets
  drug absorption from small intestine: ~90%
oral, IR tablets 80 mg, subject-dependent range
  absolute bioavailability, range: 24.5-91%
[2]
  oral LD50: > 1000 mg/Kg body weight
